# Experimental data reported in article PMC10610505, “Synthesis and Biological Evaluation of Some New 3-Aryl-2-thioxo-2,3-dihydroquinazolin-4(1H)-ones and 3-Aryl-2-(benzylthio)quinazolin-4(3H)-ones as Antioxidants; COX-2, LDHA, α-Glucosidase and α-Amylase Inhibitors; and Anti-Colon Carcinoma and Apoptosis-Inducing Agents” (Pharmaceuticals, 2023).
# Where “and” joins values, the source holds several entries; their conditions need not be identical. Equal entries are not always repeated. Where two headings read alike, the source gives them in different places.
# Assays:
# [1] = system: LoVo human colon carcinoma cells; experiment: Viability assay (LDH release), LoVo; type: cell-based; details: Homo sapiens, LoVo; for viability at 200 µg/mL: 48 h, read-out: Mean % of viable cells ± SD, LoVo; for IC50: from concentration–response curves
# Protocol: (§1) The anticancer activities of all the synthesized compounds were assessed against two human colon carcinoma cell lines, namely LoVo and HCT-116 (Table 6), via the determination of the mean percents of the viable cancerous cells remaining after being incubated with 200 µg/mL of each test compound for 48 h using LDH assay.
# (§2) The samples were diluted in Dulbecco’s Modified Eagle’s Medium, consisting of 10% fetal bovine serum (FBS), added to cells grown and cultured for 24 h in a 5% CO2-humidified incubator at 37 °C. Thereafter, the activity of lactate dehydrogenase released from damaged cells was determined in the collected supernatant aliquots using an ELISA end-point assay (Benchmark Plus, Bio-Rad, CA, USA); 0.1% Triton X-100 in the assay medium and the assay medium only were used as the positive and negative controls, respectively. Cell viability was expressed as a relative percentage of the OD values (at 550 nm) for compound-treated cells (final concentration of 200 µg /mL) and the negative control, which was shown as the mean % ± SD (n = 3). The results of the viability assays for the potential cytotoxic candidates were compared with the % of viable human umbilical vein endothelial cells (HUVEC) at the same concentration. These cells were grown in Dulbecco’s Modified Eagle’s Medium (PAN-Biotech; Barcelona, Spain) containing 10% FBS (Sigma Aldrich; St. Quentin-Fallavier, France), 2 mM Glutamine (Sigma Aldrich), 100 units/mL penicillin and […] streptomycin (Life Technologies; Paisley, UK).
# [2] = target: purified recombinant human LDHA protein (Homo sapiens, UniProt P00338); experiment: Lactate dehydrogenase A (LDHA) inhibitory assay; type: biochemical; details: for Fold change of LDHA inhibition as compared to 0.1 mg/mL: % inhibition at 0.200 mg/mL divided by % inhibition at 0.100 mg/mL; for inhibition at 100 µg/mL: at 0.1 mg/mL; for inhibition at 100 µg/mL / inhibition at 200 µg/mL: read-out: LDHA mean % inhibition ± SD; for inhibition at 200 µg/mL: at 0.2 mg/mL
# Protocol: The LDHA inhibitory effectiveness was investigated by measuring the amounts of consumed NADH [73]. […] The fluorescence of NADH, which has an excitation wavelength of 340 nm and an emission wavelength of 460 nm, was detected using a spectrofluorometer. […] The LDHA inhibitory efficiency was expressed as an inhibition percentage, which was determined via a comparison with the negative control experiments.
# [3] = system: HCT-116 human colon carcinoma cells; experiment: Viability assay (LDH release), HCT-116; type: cell-based; details: Homo sapiens; for viability at 200 µg/mL: read-out: Mean % of viable cells ± SD, HCT-116; for IC50: HCT-116, from concentration–response curves
# Protocol: as §1, §2
# α-amylase = experiment: In vitro α-amylase (AA) inhibition assay; details: mean ± SD of three replicates; for IC50: read-out: Mean IC50 α-Amylase (AA)
# Protocol: Then, 180 µL of Labtest (the amylase substrate) was added and the samples were incubated for 8 min, followed by measuring the first reaction at 620 nm to obtain (X1). Afterwards, the reaction mixture was incubated for an additional 5 min at 37 °C; then, the second reaction was measured to obtain the final reading (X2). […] The results were expressed as IC50 µg/mL (as well as µM) and were determined from the standard curves.
# COX-2 = target: T1, COX-2 (Homo sapiens, UniProt P35354); experiment: COX-2 inhibitory screening assay (Cayman kit); type: biochemical; details: for Increase in COX-2 inhibitory efficiency by duplicating the concentration: % inhibition at 0.200 mg/mL divided by % inhibition at 0.100 mg/mL; for inhibition at 100 µg/mL: at 0.100 mg/mL; for inhibition at 100 µg/mL / inhibition at 200 µg/mL: read-out: COX-2 mean % inhibition ± SD; for inhibition at 200 µg/mL: at 0.200 mg/mL
# T1 construct: purchased Cayman Chemical Company 701080
# T1 sequence (P35354 18-604): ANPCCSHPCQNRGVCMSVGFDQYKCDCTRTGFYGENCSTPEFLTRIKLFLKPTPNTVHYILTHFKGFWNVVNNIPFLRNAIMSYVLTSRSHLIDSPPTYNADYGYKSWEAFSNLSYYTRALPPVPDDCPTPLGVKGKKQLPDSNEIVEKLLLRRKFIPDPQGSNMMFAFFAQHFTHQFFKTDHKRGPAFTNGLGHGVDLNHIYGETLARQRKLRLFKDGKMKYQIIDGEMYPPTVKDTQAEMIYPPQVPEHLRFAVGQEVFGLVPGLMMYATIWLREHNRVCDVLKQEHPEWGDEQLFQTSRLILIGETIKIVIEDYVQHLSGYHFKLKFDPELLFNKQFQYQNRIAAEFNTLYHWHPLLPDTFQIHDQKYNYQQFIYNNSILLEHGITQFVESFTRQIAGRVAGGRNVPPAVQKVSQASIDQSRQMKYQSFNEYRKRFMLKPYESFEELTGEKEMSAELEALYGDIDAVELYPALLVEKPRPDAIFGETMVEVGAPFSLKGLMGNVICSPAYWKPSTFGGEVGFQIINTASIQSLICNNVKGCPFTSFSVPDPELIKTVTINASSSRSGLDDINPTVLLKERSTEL
# Protocol: Each compound of the two series, 3a–h and 5a–h, was resuspended in 100% DMSO at a final concentration of 10 mg/mL. […] Briefly, 10 µL of the tested compound was added to a mixture of the reaction buffer solution (160 µL of 0.1 M Tris-HCl, pH 8.0, in the presence of 2 mM phenol and 5 mM EDTA), COX-2 (10 µL) and heme (10 µL). After a 10 min incubation at 37 °C, the reaction was started by adding arachidonic acid (10 µL), rapidly mixed and kept at 37 °C for 2 min. PGF2α generated via PGH2 reduction with stannous chloride (30 µL) was incubated at room temperature for 5 min. The PGF2α amount was then determined via an enzyme immunoassay. Prior to incubation with the COX-2 reaction (at room temperature 18 h), the 96-well plate was previously coated with a mouse anti-rabbit monoclonal antibody. Unbound reagents were removed by washing the plate followed by adding Ellman’s reagent to the well. The reaction product displaying a distinct yellow color was measured at 410 nm using a UV microplate reader. The % inhibition was calculated by comparing the PGF2α produced in the compound-treated samples with a control sample, using the following equation: % inhibition is equal to [([PGF2α]control − [PGF2α]sample) /[PGF2α ]control ] × 100. […] The COX-2 inhibitory efficiency was expressed as an inhibition percentage, which was determined via a comparison with the negative control experiments.
# [4] = Viability assay (LDH release), HUVEC; type: cell-based, human; details: human
# Protocol: as §2
# [5] = DPPH radical scavenging assay; type: biochemical; details: for Mean IC50 for scavenging initial DPPH radicals: mean ± SD of three replicates; for IC50: mean ± SD, converted from mg/mL, read-out: Mean IC50 for scavenging initial DPPH radicals (converted)
# Description: In principle, the antioxidant power of a compound in this assay is correlated to its tendency to reduce the stable, purple-colored DPPH radical through a hydrogen atom transfer (HAT) mechanism and/or a single electron transfer mechanism, thereby converting it to the yellow-colored 2,2-diphenyl-1-picrylhydrazine, whereby this reduction is accompanied by a depletion in the amount of the initial DPPH radicals and a change in the absorbance of the test solution accordingly, which can be detected relative to the blank solution at λ = 517 nm.
# The antioxidant potencies of all synthesized compounds were investigated using a 1,1 diphenyl-2-picrylhydrazyl (DPPH) radical scavenging assay according to the protocol described by Bersuder et al.. In brief, a 0.5 mL volume of DPPH ethanolic solution was mixed with an equal volume of each sample concentration (i.e., the test compound or butylated hydroxytoluene, BHT, which was used as the reference antioxidant in the positive control experiment), shaken strongly, and incubated at room temperature for 1 h in darkness. The absorbance of the residual DPPH radicals was measured at λ = 519 nm and compared to the negative control (without the test compound or reference antioxidant). The DPPH radical scavenging power was calculated using the following formula: scavenging efficiency (%) = (1 − Acompound/AControl) × 100, where Acompound and Acontrol are the absorbance of the tested compound and the negative control, respectively. […] Additionally, the ± SD values were calculated from three independent triplicate measurements.
# [6] = human umbilical vein endothelial cells (HUVEC), 200 µg/mL, read-out: Mean % of viable cells ± SD, HUVEC
Compound,viability at 200 µg/mL [1] [%],IC50 [1],Fold change of LDHA inhibition as compared to 0.1 mg/mL [2] [fold],inhibition at 100 µg/mL [2] [%],inhibition at 200 µg/mL [2] [%],"viability at 200 µg/mL ([3]; HCT-116, 48 h) [%]",IC50 [3],Mean IC50 α-Amylase (AA) (α-amylase) [µg/mL],IC50 (α-amylase) [µM],Increase in COX-2 inhibitory efficiency by duplicating the concentration (COX-2) [fold],inhibition at 100 µg/mL (COX-2) [%],inhibition at 200 µg/mL (COX-2) [%],viability at 200 µg/mL [4] [%],Mean IC50 for scavenging initial DPPH radicals [5] [µg/mL],IC50 [5] [µM],viability at 200 µg/mL ([1]; 200 µg/mL) [%],"viability at 200 µg/mL ([3]; HCT-116, 200 µg/mL, 48 h) [%]","viability at 200 µg/mL [4, 6] [%]",IC50 ([2]; mean ± SD of three replicates) [µM],IC50 (COX-2; mean ± SD of three replicates) [µM]
"COc1cc2[nH]c(=S)n(-c3cccc(C(F)(F)F)c3)c(=O)c2cc1OC [Compound 3c, 6,7-Dimethoxy-2-thioxo-3-(3-trifluoromethyl-phenyl)-2,3-dihydro-1H-quinazolin-4-one]",47.3 ± 2.52,275 µg/mL and 720 µM,0.20,17.8 ± 1.56,30.8 ± 1.77,65 ± 3.61,281 µg/mL and 735 µM,92.000 ± 3.000,241,2.05,9.85 ± 1.63,20.2 ± 1.13,99.67 ± 0.577,100 ± 14,262,,,,,
"O=c1c2cc(Br)ccc2nc(SCc2ccc(Cl)cc2)n1-c1cccc(C(F)(F)F)c1 [Compound 5b, 2-(4-Chloro-benzylsulfanyl)-6-bromo-3-(3-trifluoromethyl-phenyl)-3H-quinazolin-4-one]",,161 µg/mL and 306 µM,1.55,14.5 ± 1.13,22.5 ± 1.7,,246 µg/mL and 468 µM,162.000 ± 5.568,308,2.11,9.25 ± 1.77,19.5 ± 2.12,,167 ± 10,318,37.7 ± 2.52,60.3 ± 2.52,96.33 ± 0.577,,
"O=c1c2cc(Br)ccc2[nH]c(=S)n1-c1ccc([N+](=O)[O-])cc1 [Compound 3g, 6-Bromo-3-(4-nitro-phenyl)-2-thioxo-2,3-dihydro-1H-quinazolin-4-one]",55.7 ± 3.06,222 µg/mL and 586 µM,,68.2 ± 4.6,100,42.3 ± 2.52,168 µg/mL and 444 µM,179.333 ± 7.768,474,1.65,60 ± 2.83,98.9 ± 1.56,,62.5 ± 2,165,,,98.7 ± 1.16,242,252
